Test results taken from patent US10039846B2, “Compositions targeting bradykinin receptor B1 for medical imaging of cancer and other disorders” (BRITISH COLUMBIA CANCER AGENCY BRANCH, priority 2012, dated 2018).
Where “and” joins values, the source holds several entries; their conditions need not be identical. Equal entries are not always repeated. Where two headings read alike, the source gives them in different places. Values belong to the molecule of their own block, whether it stands above or below them. Where a SMILES comes first, the peptide text is derived from it. [ ]: non-standard residue; d: D form. The star is where a group is joined. DOTA = O=C(O)CN1CCN(CC(=O)O)CCN(CC(=O)*)CCN(CC(=O)O)CC1; Hyp = O=C(O)[C@@H]1C[C@@H](O)CN1; Cha = N[C@@H](CC1CCCCC1)C(=O)O; PEG2 = NCCOCCOCCC(=O)O

Experiments:
B1R = molecular target: T1, B1R (Homo sapiens, UniProt P46663); assay: Competitive binding assay with 3H radioligand on CHO-K1 cell membranes over-expressing human B1R; design: purchased Perkin Elmer Inc., Waltham, Mass; ES-091-M400UA; host or cells: CHO-K1 cells over-expressing human B1R (membrane preparation)
T1 sequence (P46663 1-353): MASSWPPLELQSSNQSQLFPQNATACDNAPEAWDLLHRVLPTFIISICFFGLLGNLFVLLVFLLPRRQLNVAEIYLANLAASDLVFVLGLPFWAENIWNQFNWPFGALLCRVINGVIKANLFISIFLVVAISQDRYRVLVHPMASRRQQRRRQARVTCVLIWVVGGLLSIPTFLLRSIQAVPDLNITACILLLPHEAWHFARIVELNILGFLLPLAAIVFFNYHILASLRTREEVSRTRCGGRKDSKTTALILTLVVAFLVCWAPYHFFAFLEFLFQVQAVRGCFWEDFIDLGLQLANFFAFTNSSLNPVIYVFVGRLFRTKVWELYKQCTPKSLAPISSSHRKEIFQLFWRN
Experimental: The ability of the peptide and small molecule B1R targeting compounds to bind to B1R was assessed in competitive binding assay as described below.
Preparation of Cell Membranes: Ready to use cell membranes (12.5 μg/μL) from CHO-K1 cells over-expressing human B1R were obtained from Perkin Elmer Inc., Waltham, Mass. (cat. no. ES-091-M400UA). Binding using cell membranes from HEK293T::GFP::hB1R (from Example 3) was also tested. In the latter case, the membranes were prepared as follows: 90% confluent cells grown in large flask, T225, were detached and pelleted in a 50 mL conical tube using centrifuge at 1,200 rpm for 5 minutes. Afterward, cells were re-suspended in 20-30 mL of cold 50 mM Tris-HCl pH 7.4. Ice cold cells were disrupted for 15 seconds at 15,000 rpm with a Polytron PT3100 (Kinematica AG, Lucerne, Switzerland). The solution was aliquoted and centrifuged at 4° C. at 17,000×g for 30 minutes. The supernatant was discarded, and then the pellet was dissolved in 1-2 mL of cold salt solution containing 50 mM Tris-HCl pH 7.4 and 100 mM NaCl and incubated for 1 hour on ice. The cell membranes were pelleted by centrifugation at 4° C. at 17,000×g for 30 minutes and resuspended in 200-600 μL of 50 mM Tris-HCl pH 7.4. The cell membrane extract was stored at −80° C. Protein concentration was determined by Bradford assay (cat. no. R1271, Fermentas, Thermo Fisher Scientific, Burlington, ON). 50 ug of cell membranes per well was used for the competitive binding assay. […] Radio-labelled control was H-3 labelled [Leu^9,des-Arg^10] kallidin obtained either from American Radiolabelled Chemicals Inc, St. Louis, Mo.
Competitive Binding Assays: Assays were performed using 96-well MultiScreenHTS with glass fiber filter and PVDF support obtained from Millipore Corp, Billerica, Mass. (cat. no. MSFB N6B, lot no. R8AN42424). Wells of the MultiScreen plate were pre-soaked with 0.5% of cold Poly(ethyleneimine) (PEI) (cat. no. P3143, Sigma-Aldrich, St. Louis, Mo.) for 30 minutes. Afterward, wells were washed once with 50 mM of Tris-HCl pH 7.4. Total volume per wells was 200 μL. A fixed concentration of the hot radioligand (1, 3, 5 or 12.5 nM depending on the radioligand; see Table 5) was incubated with progressively higher concentrations (10^−11 to 10^−4 M) of the non-radioactive competitor of interest in the presence of cell membranes (50 μg/well) and the assay buffer (50 mM Tris-HCl pH 7.4, 5 mM MgCl2). The MultiScreen plate was then incubated at 27° C. for 15 minutes with agitation at 300 rpm. The assay was stopped by suctioning the reaction solution through the bottom PVDF membrane filter and discarded. The membranes were washed 7× with 150 μL/well of cold 50 mM Tris-HCl pH 7.4. Radioactivity was counted using 1450 MicroBeta TriLux—Microplate Scintillation and Luminescence Counter (Perkin Elmer Inc., Shelton, Conn.).

in vivo = details: NODSCID IL2RKO, mouse, iv, total radioactivity
Experimental: Tumour Implantation: Imaging and biodistribution experiments were performed using NODSCID IL2RKO mice. Each cage, equipped with enrichments, contained three or four mice. The mice were maintained and the experiments were conducted in accordance with the guidelines established by Canadian Council on Animal Care and approved by Animal Ethics Committee of the University of British Columbia. Mice were housed under pathogen-free conditions and kept on twelve hour light and twelve hour dark cycle in the Animal Research Centre, British Columbia Cancer Research Centre, Vancouver, Canada.
Mice were anesthetised briefly with 2.5% isoflurane in 2.0 L/min of oxygen during cell implantation. After wiping the skin surrounding the injection site with an alcohol prep pad, a 31-Gauge needle was used to inject 10^7 HEK293T::GFP and HEK293T::hB1R cells in matrigel (1:1) on the back of the mouse. Imaging was performed once the tumour lump was visible. Tumour size was measured by CT and calculated using the ellipsoid formula: V^3mm=width×length×thickness×0.524.
PET/CT Imaging: Each tumour-bearing mouse was injected with ˜3.7 MBq of Ga-68 labelled Peptide 3 through the tail vein. The mice were imaged using the BC Cancer Agency Inveon microPET/CT scanner that has a 1.3 mm spatial resolution and a high sensitivity. Briefly, a localization CT scan was first obtained using 3 overlapping positions to cover the entire mouse. This CT scan was used for attenuation and scatter correction after segmentation for reconstructing the PET images. A dynamic acquisition was then performed for 60 minutes, with the mouse under isoflurane sedation. The animals were kept warm by a monitoring system with an integrated heating pad and physiological acquisition system. At the end of the acquisition, the mice were euthanized, and major organs were collected, weighed, and counted to determine the % injected dose per gram of tissue (% ID/g). The images were reconstructed using OSEM/3DMAP iterative reconstruction, and representative images of Ga-68 labelled Peptide 3 at 1 h post-injection are shown in FIG. 4.

[1] = tested on: HEK-293 and HEK-293/BKRB1 tumours; assay: Biodistribution of Ga-68 Peptide 12 in tumour-bearing mice; format: in vivo, mouse; design: Biodistribution Spleen Average / Biodistribution Liver Average / Biodistribution Adrenal glands Average / Biodistribution Kidney Average / Biodistribution Muscle Average / Biodistribution Brain Average / Biodistribution Blood Average / Biodistribution Fat Average: unit not given here; details: 1 h post-injection
Excerpt: Peptide 12 is an […] version of Peptide 3 that was developed by substituting the C-terminal Leu residue with a D-Phe residue.

[2] = Hot 12.5 nM BK-AG-ARC, CHO-K1 membranes, individual assays, read-out: Ki
[3] = average of individual competitive binding assays, read-out: Affinity Ki (nM) Average

Structure (SMILES): COc1cc(C)c(S(=O)(=O)N(C)CCOCC(=O)N2CCC(C3CCN(CCF)CC3)CC2)c(C)c1 [Compound 15]
Ki (B1R; Hot 4.5 nM BK-ANT-ARC, CHO-K1 membranes, individual assays, read-out: Ki): 0.81 nM
Ki (B1R; [3]): 0.81 nM

Structure (SMILES): CC(C)C[C@H](NC(=O)[C@@H]1CCCN1C(=O)[C@H](CO)NC(=O)[C@H](CC1CCCCC1)NC(=O)CNC(=O)[C@@H]1C[C@@H](O)CN1C(=O)[C@@H]1CCCN1C(=O)[C@H](CCCNC(=N)N)NC(=O)[C@H](CCCCN)NC(=O)CCOCCOCCNC(=O)CN1CCN(CC(=O)O)CCN(CC(=O)O)CCN(CC(=O)O)CC1)C(=O)O [Ga-68 Peptide 3, ^68Ga-DOTA-PEG2-Lys-Arg-Pro-Hyp-Gly-Cha-Ser-Pro-Leu, metal not drawn] ({DOTA-PEG2}-KRP[Hyp]G[Cha]SPL-OH)
tissue uptake at 1 h (in vivo; 3.7 MBq, % ID/g Blood Average): 0.26 %ID/g
tissue uptake at 1 h (in vivo; 3.7 MBq, % ID/g Bone Average): 0.34 %ID/g
tissue uptake at 1 h (in vivo; 3.7 MBq, % ID/g Brain Average): 0.03 %ID/g
tissue uptake at 1 h (in vivo; 3.7 MBq, % ID/g Colon Average): 0.34 %ID/g
tissue uptake at 1 h (in vivo; 3.7 MBq, % ID/g Fat Average): 0.12 %ID/g
tissue uptake at 1 h (in vivo; 3.7 MBq, % ID/g Heart Average): 0.19 %ID/g
tissue uptake at 1 h (in vivo; 3.7 MBq, % ID/g LEFT Tumour (B1R) Average): 1.32 %ID/g
tissue uptake at 1 h (in vivo; 3.7 MBq, % ID/g Left Kidney Average): 5.14 %ID/g
tissue uptake at 1 h (in vivo; 3.7 MBq, % ID/g Liver Average): 0.16 %ID/g
tissue uptake at 1 h (in vivo; 3.7 MBq, % ID/g Lungs Average): 0.43 %ID/g
tissue uptake at 1 h (in vivo; 3.7 MBq, % ID/g Muscle Average): 0.11 %ID/g
tissue uptake at 1 h (in vivo; 3.7 MBq, % ID/g Pancreas Average): 0.13 %ID/g
tissue uptake at 1 h (in vivo; 3.7 MBq, % ID/g Plasma Average): 0.77 %ID/g
tissue uptake at 1 h (in vivo; 3.7 MBq, % ID/g RIGHT Tumour (GFP) Average): 0.23 %ID/g
tissue uptake at 1 h (in vivo; 3.7 MBq, % ID/g Right Kidney Average): 6.79 %ID/g
tissue uptake at 1 h (in vivo; 3.7 MBq, % ID/g Small Intestine Average): 0.2 %ID/g
tissue uptake at 1 h (in vivo; 3.7 MBq, % ID/g Spleen Average): 0.11 %ID/g
tissue uptake at 1 h (in vivo; 3.7 MBq, % ID/g Stomach Average): 0.11 %ID/g
tissue uptake at 1 h (in vivo; % ID/g Tail Average): 0.45 %ID/g

Structure (SMILES): N=C(N)NCCC[C@H](NC(=O)[C@H](CCCCN)NC(=O)CCCCCNC(=O)CN1CCN(CC(=O)O)CCN(CC(=O)O)CCN(CC(=O)O)CC1)C(=O)N1CCC[C@H]1C(=O)N1C[C@H](O)C[C@H]1C(=O)NCC(=O)N[C@@H](CC1CCCCC1)C(=O)N[C@@H](CO)C(=O)N1CCC[C@H]1C(=O)N[C@H](Cc1ccccc1)C(=O)O [Ga-68 Peptide 12, ^68Ga-DOTA-Ahx-Lys-Arg-Pro-Hyp-Gly-Cha-Ser-Pro-(D-Phe), metal not drawn]
Biodistribution Adrenal glands Average ([1]; Adrenal glands): 0.001
Biodistribution Blood Average ([1]; Blood): 0.039
Biodistribution Bone Average ([1]; Bone): 0.093 %ID/g
Biodistribution Brain Average ([1]; Brain): 0.009
Biodistribution Fat Average ([1]; Fat): 0.039
Biodistribution Heart Average ([1]; Heart): 0.15 %ID/g
Biodistribution Kidney Average ([1]; Kidney): 6.436
Biodistribution Large intestine Average ([1]; Large intestine): 0.149 %ID/g
Biodistribution Left tumour Average ([1]; Left tumour): 0.194 %ID/g
Biodistribution Liver Average ([1]; Liver): 0.129
Biodistribution Lungs Average ([1]; Lungs): 0.8 %ID/g
Biodistribution Muscle Average ([1]; Muscle): 0.056
Biodistribution Pancreas Average ([1]; Pancreas): 0.069
Biodistribution Plasma Average ([1]; Plasma): 0.473 %ID/g
Biodistribution Right tumour Average ([1]; Right tumour, in %ID/g): 7.909
Biodistribution Seminal glands Average ([1]; Seminal glands): 0.23 %ID/g
Biodistribution Skin Average ([1]; Skin): 0.223 %ID/g
Biodistribution Small intestine Average ([1]; Small intestine): 0.208 %ID/g
Biodistribution Spleen Average ([1]; Spleen): 0.127
Biodistribution Tail Average ([1]; Tail): 0.226 %ID/g
Biodistribution Testes Average ([1]; Testes): 0.132 %ID/g

Now from value to molecule:

Ki (B1R; [2]): 1010 nM
Ki (B1R; [3]): 1010 nM
Structure (SMILES): Cc1ccc(S(=O)(=O)N2c3ccccc3NC(=O)[C@H]2CC(=O)NCCc2ccc(NCCF)cc2)cc1 [Compound 6]

Ki (B1R; [2]): 113 nM and 39.5 nM and 260 nM
Ki (B1R; Hot 12.5 nM BK-ANT-ARC, CHO-K1 membranes, individual assays, read-out: Ki): 20.7 nM
Ki (B1R; [3]): 108 nM
Structure (SMILES): Cc1ccc(S(=O)(=O)N2c3ccccc3NC(=O)[C@H]2CC(=O)Nc2ccc(N3CCN(CCF)CC3)cc2)cc1 [Compound 7]

Ki (B1R; [2]): 6920 nM
Ki (B1R; [3]): 6920 nM
Structure (SMILES): Cc1ccc(S(=O)(=O)N2c3ccccc3NC(=O)[C@H]2CC(=O)NCc2ccc(NCCF)cc2)cc1 [Compound 8]
